{"source": "patent US20250069697A1", "about": "“AN IMPROVED METHOD TO IDENTIFY NUCLEIC ACID SEQUENCES WITHIN A SET OF SEQUENCES OBTAINED BY A SEQUENCER AND A SYSTEM” (priority 2022, published 2025)", "assay_type_in_all_cases": "cell-based", "key": {"Klebsiella pneumoniae": {"tested_on": "Klebsiella pneumoniae", "assay": "Growth of the isolate in antibiotic mediums, sample 1", "settings": "microorganism isolated in sample 1 (Klebsiella pneumoniae); grown in antibiotic medium", "excerpt": "(§1) Each microorganism was growth in at least two antibiotic mediums, in which the improved method predicted resistance, and at least two antibiotic mediums in which the improved method predicted susceptibility, in order to corroborate the obtained results."}, "Staphylococcus aureus": {"tested_on": "Staphylococcus aureus", "assay": "Growth of the isolate in antibiotic mediums, sample 2", "settings": "microorganism isolated in sample 2 (Staphylococcus aureus); grown in antibiotic medium", "excerpt": "as §1"}, "Enterococcus faecalis": {"tested_on": "Enterococcus faecalis", "assay": "Growth of the isolate in antibiotic mediums, sample 3", "settings": "microorganism isolated in sample 3 (Enterococcus faecalis); grown in antibiotic medium", "excerpt": "as §1"}, "[1]": {"tested_on": "Staphylococcus epidermidis", "assay": "Growth of the isolate in antibiotic mediums, sample 4", "settings": "microorganism isolated in sample 4 (Staphylococcus epidermidis); grown in antibiotic medium", "excerpt": "as §1"}, "Escherichia coli": {"tested_on": "Escherichia coli", "assay": "Growth of the isolate in antibiotic mediums, sample 5", "settings": "microorganism isolated in sample 5 (Escherichia coli); grown in antibiotic medium", "excerpt": "as §1"}}}
{"smiles": "NCC[C@H](O)C(=O)N[C@@H]1C[C@H](N)[C@@H](O[C@H]2O[C@H](CN)[C@@H](O)[C@H](O)[C@H]2O)[C@H](O)[C@H]1O[C@H]1O[C@H](CO)[C@@H](O)[C@H](N)[C@H]1O", "note": "[Amikacin]", "values": [{"measurement": "Result", "setting": "Klebsiella pneumoniae", "result": "Not resistant"}, {"measurement": "Result", "setting": "Staphylococcus aureus", "result": "Not resistant"}, {"measurement": "Result", "setting": "Enterococcus faecalis", "result": "Not resistant"}, {"measurement": "Result", "setting": "[1]", "result": "Not resistant"}, {"measurement": "Result", "setting": "Escherichia coli", "result": "Not resistant"}]}
{"smiles": "CO/N=C(\\C(=O)N[C@@H]1C(=O)N2C(C(=O)O)=C(CSc3nc(=O)c(=O)[nH]n3C)CS[C@H]12)c1csc(N)n1", "note": "[Ceftriaxone]", "values": [{"measurement": "Result", "setting": "Klebsiella pneumoniae", "result": "Resistant"}, {"measurement": "Result", "setting": "[1]", "result": "Resistant"}, {"measurement": "Result", "setting": "Escherichia coli", "result": "Resistant"}]}
{"smiles": "O=C(O)c1cn(C2CC2)c2cc(N3CCNCC3)c(F)cc2c1=O", "note": "[Ciprofloxacin]", "values": [{"measurement": "Result", "setting": "Klebsiella pneumoniae", "result": "Resistant"}, {"measurement": "Result", "setting": "Staphylococcus aureus", "result": "Resistant"}, {"measurement": "Result", "setting": "Enterococcus faecalis", "result": "Not resistant"}, {"measurement": "Result", "setting": "[1]", "result": "Resistant"}, {"measurement": "Result", "setting": "Escherichia coli", "result": "Resistant"}]}
{"smiles": "COc1cccc(OC)c1C(=O)N[C@@H]1C(=O)N2[C@@H]1SC(C)(C)[C@@H]2C(=O)O", "note": "[Methicillin]", "values": [{"measurement": "Result", "setting": "Klebsiella pneumoniae", "result": "Not resistant"}, {"measurement": "Result", "setting": "Staphylococcus aureus", "result": "Not resistant"}, {"measurement": "Result", "setting": "[1]", "result": "Not resistant"}, {"measurement": "Result", "setting": "Escherichia coli", "result": "Not resistant"}]}
{"smiles": "CC[C@H]1OC(=O)[C@H](C)[C@@H](O[C@H]2C[C@@](C)(OC)[C@@H](O)[C@H](C)O2)[C@H](C)[C@@H](O[C@@H]2O[C@H](C)C[C@H](N(C)C)[C@H]2O)[C@](C)(O)C[C@@H](C)CN(C)[C@H](C)[C@@H](O)[C@]1(C)O", "note": "[azithromycin]", "values": [{"measurement": "Result", "setting": "Staphylococcus aureus", "result": "Resistant"}]}
